According to US10004701B2, “Methods and compositions for treating infection” (UNIVERSITY OF ROCHESTER, priority 2012, dated 2018):
Where two headings read alike, the source gives them in different places.

How the values were obtained:
Test in all cases: AK assay 384-well format, Prestwick library screening
[1] = system: P. aeruginosa; format: cell-based, Pseudomonas aeruginosa; details: for fold induction at 50 µM: Pseudomonas aeruginosa, 3 h
[2] = system: E. coli; format: cell-based, Escherichia coli; details: 50 μM final drug concentration; for fold induction at 50 µM: Escherichia coli, 3 h
[3] = system: S. aureus strain USA300-0114; format: cell-based, Staphylococcus aureus; details: for fold induction at 50 µM: Staphylococcus aureus, USA300, 3 h
[4] = system: E. cloacae; format: cell-based, Enterobacter cloacae; details: for fold induction at 50 µM: Enterobacter cloacae, 3 h
[5] = system: E. faecium; format: cell-based, Enterococcus faecium; details: for fold induction at 50 µM: Enterococcus faecium, 3 h
[6] = system: K. pneumoniae; format: cell-based, Klebsiella pneumoniae; details: for fold induction at 50 µM: Klebsiella pneumoniae, 3 h
[7] = system: A. baumannii strain 98-37-09; format: cell-based, Acinetobacter baumannii; details: for fold induction at 50 µM: Acinetobacter baumannii, 983709, 3 h
[8] = 50 μM final drug concentration, planktonic, cutoff for positive 3-fold increase
[9] = planktonic, […], read-out: AK-based Prestwick Library Screening Results, E. coli (fold increase in extracellular AK activity)
[10] = planktonic E. coli, 384-well, […], read-out: AK-based Prestwick Library Screening Results: E. coli (increase in extracellular AK activity)

CC[C@H](C)[C@H]1O[C@]2(CC[C@@H]1C)C[C@@H]1C[C@@H](C/C=C(\C)[C@@H](O[C@H]3C[C@H](OC)[C@@H](O[C@H]4C[C@H](OC)[C@@H](O)[C@H](C)O4)[C@H](C)O3)[C@@H](C)/C=C/C=C3\CO[C@@H]4[C@H](O)C(C)=C[C@@H](C(=O)O1)[C@]34O)O2 [Ivermectin]
AK-based Prestwick Library Screening Results: P. aeruginosa (increase in extracellular AK activity) ([1]; planktonic P. aeruginosa, 50 μM final drug concentration, 384-well, […]): 1.0 | AK-based Prestwick Library Screening Results: E. coli (increase in extracellular AK activity) ([2]; planktonic E. coli, 384-well, […]): 1.3 | AK-based Prestwick Library Screening Results: S. aureus (increase in extracellular AK activity) ([3]; planktonic S. aureus, 50 μM final drug concentration, 384-well, […]): 2.1 | AK-based Prestwick Library Screening Results: E. cloacae (increase in extracellular AK activity) ([4]; planktonic E. cloacae, 50 μM final drug concentration, 384-well, […]): 1.6 | AK-based Prestwick Library Screening Results: E. faecium (increase in extracellular AK activity) ([5]; planktonic E. faecium, 50 μM final drug concentration, 384-well, […]): 1.2 | AK-based Prestwick Library Screening Results: K. pneumoniae (increase in extracellular AK activity) ([6]; planktonic K. pneumoniae, 50 μM final drug concentration, 384-well, […]): 1.0 | AK-based Prestwick Library Screening Results: A. baumannii (increase in extracellular AK activity) ([7]; planktonic A. baumannii, 50 μM final drug concentration, 384-well, […]): 1.5

CO[C@@H]1[C@@H](O[C@@H]2O[C@H](C)[C@@H](O[C@H]3C[C@@](C)(O)[C@@H](OC(=O)CC(C)C)[C@H](C)O3)[C@H](N(C)C)[C@H]2O)[C@@H](CC=O)C[C@@H](C)[C@@H](O)/C=C/C=C/C[C@@H](C)OC(=O)C[C@H]1OC(C)=O [Josamycin]
fold induction at 50 µM ([1]; planktonic P. aeruginosa, 50 μM final drug concentration, 384-well, cutoff for positive-scoring molecules 3-fold increase, read-out: AK-based Prestwick Library Screening Results: P. aeruginosa (increase in extracellular AK activity)): 0.9 | fold induction at 50 µM ([2]; planktonic E. coli, 384-well, cutoff for positive-scoring molecules 3-fold increase, read-out: AK-based Prestwick Library Screening Results: E. coli (increase in extracellular AK activity)): 1.3 | fold induction at 50 µM ([3]; planktonic S. aureus, 50 μM final drug concentration, 384-well, cutoff for positive-scoring molecules 3-fold increase, read-out: AK-based Prestwick Library Screening Results: S. aureus (increase in extracellular AK activity)): 8.4 | fold induction at 50 µM ([4]; planktonic E. cloacae, 50 μM final drug concentration, 384-well, cutoff for positive-scoring molecules 3-fold increase, read-out: AK-based Prestwick Library Screening Results: E. cloacae (increase in extracellular AK activity)): 1.4 | fold induction at 50 µM ([5]; planktonic E. faecium, 50 μM final drug concentration, 384-well, cutoff for positive-scoring molecules 3-fold increase, read-out: AK-based Prestwick Library Screening Results: E. faecium (increase in extracellular AK activity)): 1 | fold induction at 50 µM ([6]; planktonic K. pneumoniae, 50 μM final drug concentration, 384-well, cutoff for positive-scoring molecules 3-fold increase, read-out: AK-based Prestwick Library Screening Results: K. pneumoniae (increase in extracellular AK activity)): 1 | fold induction at 50 µM ([7]; planktonic A. baumannii, 50 μM final drug concentration, 384-well, cutoff for positive-scoring molecules 3-fold increase, read-out: AK-based Prestwick Library Screening Results: A. baumannii (increase in extracellular AK activity)): 1.1

O=c1c(O)c(-c2ccc(O)cc2)oc2cc(O)cc(O)c12 [Kaempferol]
fold induction at 50 µM ([1]; planktonic P. aeruginosa, 50 μM final drug concentration, positive cutoff 3-fold increase, read-out: AK-based Prestwick library screening result, P. aeruginosa (fold increase in extracellular AK activity)): 0.6 | fold induction at 50 µM ([2]; planktonic E. coli, positive cutoff 3-fold increase, read-out: AK-based Prestwick library screening result, E. coli (fold increase in extracellular AK activity)): 0.5 | fold induction at 50 µM ([3]; planktonic S. aureus, 50 μM final drug concentration, positive cutoff 3-fold increase, read-out: AK-based Prestwick library screening result, S. aureus (fold increase in extracellular AK activity)): 0.2 | fold induction at 50 µM ([4]; planktonic E. cloacae, 50 μM final drug concentration, positive cutoff 3-fold increase, read-out: AK-based Prestwick library screening result, E. cloacae (fold increase in extracellular AK activity)): 1.6 | fold induction at 50 µM ([5]; planktonic E. faecium, 50 μM final drug concentration, positive cutoff 3-fold increase, read-out: AK-based Prestwick library screening result, E. faecium (fold increase in extracellular AK activity)): 1 | fold induction at 50 µM ([6]; planktonic K. pneumoniae, 50 μM final drug concentration, positive cutoff 3-fold increase, read-out: AK-based Prestwick library screening result, K. pneumoniae (fold increase in extracellular AK activity)): 0.6 | fold induction at 50 µM ([7]; planktonic A. baumannii, 50 μM final drug concentration, positive cutoff 3-fold increase, read-out: AK-based Prestwick library screening result, A. baumannii (fold increase in extracellular AK activity)): 0.5

NC[C@H]1O[C@H](O[C@H]2[C@H](O)[C@@H](O[C@H]3O[C@H](CO)[C@@H](O)[C@H](N)[C@H]3O)[C@H](N)C[C@@H]2N)[C@H](O)[C@@H](O)[C@@H]1O.O=S(=O)(O)O [Kanamycin A sulfate]
AK-based Prestwick Library Screening Results, P. aeruginosa (fold increase in extracellular AK activity) [1, 8]: 1.0 | AK-based Prestwick Library Screening Results, E. coli (fold increase in extracellular AK activity) ([2]; planktonic, cutoff for positive 3-fold increase): 1.2 | AK-based Prestwick Library Screening Results, S. aureus (fold increase in extracellular AK activity) [3, 8]: 2.5 | AK-based Prestwick Library Screening Results, E. cloacae (fold increase in extracellular AK activity) [4, 8]: 1.9 | AK-based Prestwick Library Screening Results, E. faecium (fold increase in extracellular AK activity) [5, 8]: 0.9 | AK-based Prestwick Library Screening Results, K. pneumoniae (fold increase in extracellular AK activity) [6, 8]: 1.0 | AK-based Prestwick Library Screening Results, A. baumannii (fold increase in extracellular AK activity) [7, 8]: 1.1

CCN1C[C@]2(C)CC[C@H](O)[C@]34C1[C@@H](C[C@H]23)[C@@]1(O)C[C@H](OC)[C@H]2C[C@@H]4[C@@H]1[C@H]2O [Karakoline]
fold induction at 50 µM ([1]; 50 μM final drug concentration, planktonic, […], read-out: AK-based Prestwick Library Screening Results, P. aeruginosa (fold increase in extracellular AK activity)): 1.1 | fold induction at 50 µM [2, 9]: 1 | fold induction at 50 µM ([3]; 50 μM final drug concentration, planktonic, […], read-out: AK-based Prestwick Library Screening Results, S. aureus (fold increase in extracellular AK activity)): 1.2 | fold induction at 50 µM ([4]; 50 μM final drug concentration, planktonic, […], read-out: AK-based Prestwick Library Screening Results, E. cloacae (fold increase in extracellular AK activity)): 1.3 | fold induction at 50 µM ([5]; 50 μM final drug concentration, planktonic, […], read-out: AK-based Prestwick Library Screening Results, E. faecium (fold increase in extracellular AK activity)): 1 | fold induction at 50 µM ([6]; 50 μM final drug concentration, planktonic, […], read-out: AK-based Prestwick Library Screening Results, K. pneumoniae (fold increase in extracellular AK activity)): 0.9 | fold induction at 50 µM ([7]; 50 μM final drug concentration, planktonic, […], read-out: AK-based Prestwick Library Screening Results, A. baumannii (fold increase in extracellular AK activity)): 1

COC1=CC(=O)O[C@@H](/C=C/c2ccccc2)C1 [Kawain]
fold induction at 50 µM ([1]; planktonic P. aeruginosa, 50 μM final drug concentration, 384-well, […], read-out: AK-based Prestwick Library Screening Results: P. aeruginosa (increase in extracellular AK activity)): 1 | fold induction at 50 µM [2, 10]: 1.1 | fold induction at 50 µM ([3]; planktonic S. aureus, 50 μM final drug concentration, 384-well, […], read-out: AK-based Prestwick Library Screening Results: S. aureus (increase in extracellular AK activity)): 1 | fold induction at 50 µM ([4]; planktonic E. cloacae, 50 μM final drug concentration, 384-well, […], read-out: AK-based Prestwick Library Screening Results: E. cloacae (increase in extracellular AK activity)): 1.4 | fold induction at 50 µM ([5]; planktonic E. faecium, 50 μM final drug concentration, 384-well, […], read-out: AK-based Prestwick Library Screening Results: E. faecium (increase in extracellular AK activity)): 1.1 | fold induction at 50 µM ([6]; planktonic K. pneumoniae, 50 μM final drug concentration, 384-well, […], read-out: AK-based Prestwick Library Screening Results: K. pneumoniae (increase in extracellular AK activity)): 1 | fold induction at 50 µM ([7]; planktonic A. baumannii, 50 μM final drug concentration, 384-well, […], read-out: AK-based Prestwick Library Screening Results: A. baumannii (increase in extracellular AK activity)): 1.2

CC(=O)N1CCN(c2ccc(OCC3COC(Cn4ccnc4)(c4ccc(Cl)cc4Cl)O3)cc2)CC1 (centres unmarked) [Ketoconazole]
fold induction at 50 µM ([1]; 50 μM final drug concentration, planktonic, cutoff for positive 3-fold increase, read-out: AK-based Prestwick Library Screening Results, P. aeruginosa (fold increase in extracellular AK activity)): 1.1 | fold induction at 50 µM [2, 9]: 1.3 | fold induction at 50 µM ([3]; 50 μM final drug concentration, planktonic, cutoff for positive 3-fold increase, read-out: AK-based Prestwick Library Screening Results, S. aureus (fold increase in extracellular AK activity)): 1.2 | fold induction at 50 µM ([4]; 50 μM final drug concentration, planktonic, cutoff for positive 3-fold increase, read-out: AK-based Prestwick Library Screening Results, E. cloacae (fold increase in extracellular AK activity)): 1.5 | fold induction at 50 µM ([5]; 50 μM final drug concentration, planktonic, cutoff for positive 3-fold increase, read-out: AK-based Prestwick Library Screening Results, E. faecium (fold increase in extracellular AK activity)): 0.9 | fold induction at 50 µM ([6]; 50 μM final drug concentration, planktonic, cutoff for positive 3-fold increase, read-out: AK-based Prestwick Library Screening Results, K. pneumoniae (fold increase in extracellular AK activity)): 1.2 | fold induction at 50 µM ([7]; 50 μM final drug concentration, planktonic, cutoff for positive 3-fold increase, read-out: AK-based Prestwick Library Screening Results, A. baumannii (fold increase in extracellular AK activity)): 1.5

CC(C(=O)O)c1cccc(C(=O)c2ccccc2)c1 (centres unmarked) [Ketoprofen]
fold induction at 50 µM ([1]; read-out: AK-based Prestwick Library Screening Results: P. aeruginosa (increase in extracellular AK activity)): 1 | fold induction at 50 µM [2, 10]: 1.1 | fold induction at 50 µM ([3]; read-out: AK-based Prestwick Library Screening Results: S. aureus (increase in extracellular AK activity)): 1 | fold induction at 50 µM ([4]; read-out: AK-based Prestwick Library Screening Results: E. cloacae (increase in extracellular AK activity)): 1.5 | fold induction at 50 µM ([5]; read-out: AK-based Prestwick Library Screening Results: E. faecium (increase in extracellular AK activity)): 0.9 | fold induction at 50 µM ([6]; read-out: AK-based Prestwick Library Screening Results: K. pneumoniae (increase in extracellular AK activity)): 1.1 | fold induction at 50 µM ([7]; read-out: AK-based Prestwick Library Screening Results: A. baumannii (increase in extracellular AK activity)): 1
